Source: PubChem BioAssay AID1963980 (Molecular Pharmacology Branch, DTP, NCI, 2024)

system: 475296-252-R-J1-PDC spheroid viability; experiment: Anticancer human tumor 475296-252-R-J1-PDC patient-derived rectal carcinoma cell line growth inhibition [PI3K]; details: second compound 3.16 µM; first compound 0.1 µM; hits give low values; spheroids with HUVEC and MSC
Procedure, shortened: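 Viability of mixed-cell spheroids was determined after exposure to pairwise combinations, one partner being inavolisib, alpelisib, duvelisib or copanlisib. Highest tested concentration matched clinical Cmax where known and 10 microM where not, descending in half-log steps.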
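Also: spheroids exposed to agents for seven days before readout.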

Row | Compound | viability, T/C [%]
1 | CC(Cn1ccc(-c2ccc(C#N)c(Cl)c2)n1)NC(=O)c1cc(C(C)O)[nH]n1 (stereo unspecified) + CC(Nc1ncnc2nc[nH]c12)c1cc2cccc(Cl)c2c(=O)n1-c1ccccc1 | 95.8
2 | Cn1ncc(Cl)c1-c1cc(C(=O)NC(CN)Cc2cccc(F)c2)sc1Cl (stereo unspecified) + CC(Nc1ncnc2nc[nH]c12)c1cc2cccc(Cl)c2c(=O)n1-c1ccccc1 | 80.4
3 | Cn1nccc1Nc1nccc(-c2ccn(C(CO)c3ccc(Cl)c(F)c3)c(=O)c2)n1 (stereo unspecified) + CC(Nc1ncnc2nc[nH]c12)c1cc2cccc(Cl)c2c(=O)n1-c1ccccc1 | 96.8

same assay, conditions: second compound 3.16 µM; first compound 0.316 µM; hits give low values; spheroids with HUVEC and MSC

Row | Compound | viability, T/C [%]
4 | C#Cc1c(F)ccc2cc(O)cc(-c3ncc4c(N5CC6CCC(C5)N6)nc(OCC56CCCN5CC(F)C6)nc4c3F)c12 (stereo unspecified) + CC(Nc1ncnc2nc[nH]c12)c1cc2cccc(Cl)c2c(=O)n1-c1ccccc1 | 71.7
5 | C=CC(=O)N1CCN(c2nc(=O)n(-c3c(C)ccnc3C(C)C)c3nc(-c4c(O)cccc4F)c(F)cc23)C(C)C1 (stereo unspecified) + CC(Nc1ncnc2nc[nH]c12)c1cc2cccc(Cl)c2c(=O)n1-c1ccccc1 | 99.4
6 | CC(Cn1ccc(-c2ccc(C#N)c(Cl)c2)n1)NC(=O)c1cc(C(C)O)[nH]n1 (stereo unspecified) + CC(Nc1ncnc2nc[nH]c12)c1cc2cccc(Cl)c2c(=O)n1-c1ccccc1 | 83.4
7 | Cn1ncc(Cl)c1-c1cc(C(=O)NC(CN)Cc2cccc(F)c2)sc1Cl (stereo unspecified) + CC(Nc1ncnc2nc[nH]c12)c1cc2cccc(Cl)c2c(=O)n1-c1ccccc1 | 51.4
8 | Cn1nccc1Nc1nccc(-c2ccn(C(CO)c3ccc(Cl)c(F)c3)c(=O)c2)n1 (stereo unspecified) + CC(Nc1ncnc2nc[nH]c12)c1cc2cccc(Cl)c2c(=O)n1-c1ccccc1 | 89.2

same assay, conditions: second compound 3.16 µM; first compound 1 µM; hits give low values; spheroids with HUVEC and MSC

Row | Compound | viability, T/C [%]
9 | C#Cc1c(F)ccc2cc(O)cc(-c3ncc4c(N5CC6CCC(C5)N6)nc(OCC56CCCN5CC(F)C6)nc4c3F)c12 (stereo unspecified) + CC(Nc1ncnc2nc[nH]c12)c1cc2cccc(Cl)c2c(=O)n1-c1ccccc1 | 61
10 | C=CC(=O)N1CCN(c2nc(=O)n(-c3c(C)ccnc3C(C)C)c3nc(-c4c(O)cccc4F)c(F)cc23)C(C)C1 (stereo unspecified) + CC(Nc1ncnc2nc[nH]c12)c1cc2cccc(Cl)c2c(=O)n1-c1ccccc1 | 107
11 | CC(Cn1ccc(-c2ccc(C#N)c(Cl)c2)n1)NC(=O)c1cc(C(C)O)[nH]n1 (stereo unspecified) + CC(Nc1ncnc2nc[nH]c12)c1cc2cccc(Cl)c2c(=O)n1-c1ccccc1 | 92.2
12 | Cn1ncc(Cl)c1-c1cc(C(=O)NC(CN)Cc2cccc(F)c2)sc1Cl (stereo unspecified) + CC(Nc1ncnc2nc[nH]c12)c1cc2cccc(Cl)c2c(=O)n1-c1ccccc1 | 50.9
13 | Cn1nccc1Nc1nccc(-c2ccn(C(CO)c3ccc(Cl)c(F)c3)c(=O)c2)n1 (stereo unspecified) + CC(Nc1ncnc2nc[nH]c12)c1cc2cccc(Cl)c2c(=O)n1-c1ccccc1 | 80.4

same assay, conditions: second compound 3.16 µM; first compound 3.16 µM; hits give low values; spheroids with HUVEC and MSC

Row | Compound | viability, T/C [%]
14 | C#Cc1c(F)ccc2cc(O)cc(-c3ncc4c(N5CC6CCC(C5)N6)nc(OCC56CCCN5CC(F)C6)nc4c3F)c12 (stereo unspecified) + CC(Nc1ncnc2nc[nH]c12)c1cc2cccc(Cl)c2c(=O)n1-c1ccccc1 | 56
15 | C=CC(=O)N1CCN(c2nc(=O)n(-c3c(C)ccnc3C(C)C)c3nc(-c4c(O)cccc4F)c(F)cc23)C(C)C1 (stereo unspecified) + CC(Nc1ncnc2nc[nH]c12)c1cc2cccc(Cl)c2c(=O)n1-c1ccccc1 | 103
16 | CC(Cn1ccc(-c2ccc(C#N)c(Cl)c2)n1)NC(=O)c1cc(C(C)O)[nH]n1 (stereo unspecified) + CC(Nc1ncnc2nc[nH]c12)c1cc2cccc(Cl)c2c(=O)n1-c1ccccc1 | 94.5
17 | Cn1ncc(Cl)c1-c1cc(C(=O)NC(CN)Cc2cccc(F)c2)sc1Cl (stereo unspecified) + CC(Nc1ncnc2nc[nH]c12)c1cc2cccc(Cl)c2c(=O)n1-c1ccccc1 | 60.7
18 | Cn1nccc1Nc1nccc(-c2ccn(C(CO)c3ccc(Cl)c(F)c3)c(=O)c2)n1 (stereo unspecified) + CC(Nc1ncnc2nc[nH]c12)c1cc2cccc(Cl)c2c(=O)n1-c1ccccc1 | 82.2

same assay, conditions: second compound 3.16 µM; first compound 10 µM; hits give low values; spheroids with HUVEC and MSC

Row | Compound | viability, T/C [%]
19 | C#Cc1c(F)ccc2cc(O)cc(-c3ncc4c(N5CC6CCC(C5)N6)nc(OCC56CCCN5CC(F)C6)nc4c3F)c12 (stereo unspecified) + CC(Nc1ncnc2nc[nH]c12)c1cc2cccc(Cl)c2c(=O)n1-c1ccccc1 | 40.6
20 | C=CC(=O)N1CCN(c2nc(=O)n(-c3c(C)ccnc3C(C)C)c3nc(-c4c(O)cccc4F)c(F)cc23)C(C)C1 (stereo unspecified) + CC(Nc1ncnc2nc[nH]c12)c1cc2cccc(Cl)c2c(=O)n1-c1ccccc1 | 90.2
21 | CC(Cn1ccc(-c2ccc(C#N)c(Cl)c2)n1)NC(=O)c1cc(C(C)O)[nH]n1 (stereo unspecified) + CC(Nc1ncnc2nc[nH]c12)c1cc2cccc(Cl)c2c(=O)n1-c1ccccc1 | 96.2
22 | Cn1ncc(Cl)c1-c1cc(C(=O)NC(CN)Cc2cccc(F)c2)sc1Cl (stereo unspecified) + CC(Nc1ncnc2nc[nH]c12)c1cc2cccc(Cl)c2c(=O)n1-c1ccccc1 | 52.1
23 | Cn1nccc1Nc1nccc(-c2ccn(C(CO)c3ccc(Cl)c(F)c3)c(=O)c2)n1 (stereo unspecified) + CC(Nc1ncnc2nc[nH]c12)c1cc2cccc(Cl)c2c(=O)n1-c1ccccc1 | 59.1

same assay, conditions: second compound 10 µM; first compound 0.0316 µM; hits give low values; spheroids with HUVEC and MSC

Row | Compound | viability, T/C [%]
24 | C#Cc1c(F)ccc2cc(O)cc(-c3ncc4c(N5CC6CCC(C5)N6)nc(OCC56CCCN5CC(F)C6)nc4c3F)c12 (stereo unspecified) + CC(Nc1ncnc2nc[nH]c12)c1cc2cccc(Cl)c2c(=O)n1-c1ccccc1 | 95.2
25 | C=CC(=O)N1CCN(c2nc(=O)n(-c3c(C)ccnc3C(C)C)c3nc(-c4c(O)cccc4F)c(F)cc23)C(C)C1 (stereo unspecified) + CC(Nc1ncnc2nc[nH]c12)c1cc2cccc(Cl)c2c(=O)n1-c1ccccc1 | 83.8
26 | CC(Cn1ccc(-c2ccc(C#N)c(Cl)c2)n1)NC(=O)c1cc(C(C)O)[nH]n1 (stereo unspecified) + CC(Nc1ncnc2nc[nH]c12)c1cc2cccc(Cl)c2c(=O)n1-c1ccccc1 | 95
